Earlier results in US20060281715A1, “Phosphates of secondary alcohols” (priority 2003, published 2006).

What was measured:
[1] = test system: noradrenaline uptake; settings: enantiomers of venlafaxine
[2] = test system: seratonin uptake; settings: enantiomers of venlafaxine
[3] = major metabolite
[4] = oral administration

Compound: COc1ccc(C(CN(C)C)C2(O)CCCCC2)cc1 (single isomer, unassigned) [R-enantiomer]
- potency as inhibitor of noradrenaline uptake, compared with other enantiomer [1]: more potent

Compound: COc1ccc(C(CN(C)C)C2(O)CCCCC2)cc1 (single isomer, unassigned) [S-enantiomer]
- potency as inhibitor of seratonin uptake, compared with other enantiomer [2]: more potent

Compound: CN(C)CC(c1ccc(O)cc1)C1(O)CCCCC1 (stereo not drawn) [O-desmethylvenlafaxine]
- potency compared with venlafaxine [3]: equally potent
- half-life (calculated): 11 h

Compound: CC[C@H](C)C(=O)O[C@H]1C[C@H](O)C=C2C=C[C@H](C)[C@H](CC[C@@H](O)C[C@@H](O)CC(=O)O)[C@H]21 [Pravastatin]
- time to peak plasma levels [4]: about an hour and a half

Compound: COc1ccc(C(CN(C)C)C2(O)CCCCC2)cc1 (stereo not drawn) [Venlafaxine]
- time to mean peak plasma concentrations (following single 25 to 150 mg doses): approximately 2.4 hours
